In patent US20150132342A1, “NOVEL IMMUNE ACTIVATORS: SUBSTITUTE 4-AMINOQUINAZOLINES” (The Regents of the University of California, priority 2013, published 2015):

How the values were obtained:
[1] = tested on: HepG2 cells; test: MTT assay in HepG2 cells; format: cell-based; conditions: compounds tested at 10 μM; normalized with OD570-650 of vehicle treatment; in % (unit assumed)
[2] = tested on: human TLRs (TLR2, TLR3, TLR4/MD-2/CD14, TLR5, TLR7, TLR8 or TLR9); test: Human TLR-transfected HEK293 NF-κB SEAP reporter cell panel; format: cell-based; conditions: 10 μM, 20-24 h
Experimental: To identify the target receptor, we used HEK293 cells stably transfected with the following human TLRs (TLR2, TLR3, TLR4/MD-2/CD14, TLR5, TLR7, TLR8 or TLR9) along with an NF-κB activation reporter producing Secreted Alkaline Phosphatase (SEAP, FIG. 1A). To further confirm that TLR4 was indeed the receptor, compound 1a was assayed for IL-6 production in mBMDCs from wild type and TLR4 deficient mice (FIG. 1B). […] TLR4 signals through two distinct pathways, leading respectively to NF-κB dependent cytokines and type I interferon (IFN) production. Several naturally occurring TLR4 ligands and MPLA have been reported to require CD14 to activate the IFN regulatory pathway. The hTLR4 reporter cell line (FIG. 1A) also overexpresses hMD-2 and hCD14, which are TLR4 accessory proteins.
In vitro assays using TLR reporter cell lines. Murine or humanTLR4 HEK Blue™ cells (Invivogen, 2.5×10^4 cells per well of a 96 well plate), or NF-κB/SEAPorter™ HEK 293 cells (Imgenex, San Diego, Calif.) for human TLR2, TLR3, TLR5, TLR7, TLR8, or TLR9 (5×10^4 cells per well of 96 well plate) were incubated with graded doses of the test compound. […] Secreted alkaline phosphatase (SEAP) activity in the supernatants was determined by a colorimetric assay, using either the SEAPorter Assay Kit (Imgenex, San Diego, Calif.), with absorbance read at 405 nm, or QuantiBlue (Invivogen), with absorbance read at 630 nm. […]

[3] = tested on: mBMDC; test: IL-6 induction in mouse bone marrow derived dendritic cells (wild type or gene deficient); format: cell-based
Text: Animals. Seven to 9 week-old C57BL/6 (wild type, WT) and Cd14^−/− (C57BL/6 background) mice were purchased from the Jackson Laboratories (Bar Harbor, Mass.). Tlr4^−/− mice (C57BL/6 background) were a gift from Dr. Shizuo Akira (Osaka University, Japan) and were backcrossed for 10 generations onto the C57BL/6 background at University of California, San Diego (UCSD). MD-2^−/− mice (C57BL/6 background) were originally generated by Dr. K. Miyake (University of Tokyo, Tokyo, Japan) and were kindly provided by Dr. L. Hajjar (University of Washington, Seattle, Wash.). Human TLR4 transgenic mice on murine TLR4/MD-2 null C57BL/6 background were kindly provided by Dr. L. Hajjar.^3 All animal experiments were approved by the UCSD Institutional Animal Care and Use Committee.
In vitro cytokine induction in bone marrow derived dendritic cells (BMDC) and macrophages (BMDM). BMDC or BMDM were prepared from C57BL/6 mice as described.^4 BMDC or BMDM (10^5 cells per well) were plated in 96-well plates in 200 μl complete RPMI1640 (Omega Scientific, Tarzana, Calif.) supplemented with 10% fetal calf serum (Sigma Aldrich), 100 U/mL penicillin and 100 μg/mL streptomycin (Life Technologies). The cells were incubated with graded concentrations of the compounds for 18 h at 37° C., 5% CO2. After 18 h incubation, the cell culture supernatants were collected. LPS (100 ng/mL, L2654, E coli; B6, Sigma) or MPLA (1 μg/mL synthetic MPLA, Invivogen) were used as positive controls. The levels of IL-6 or IP-10 in the culture supernatants were determined by ELISA (BD Biosciences, La Jolla, Calif.).^5 Finally, all levels of cytokine release were normalized to those of LPSstimulation within each experiment, set at 100.

[4] = tested on: mBMDC; test: Co-stimulatory molecule expression in CD11c+ mBMDC (flow cytometry); format: cell-based, mouse; conditions: CD11c+ population
Experimental: FIG. 2. Compound 1a induces type I IFN and expression of co-stimulatory molecules. A) Human PBMC were incubated with compound 1a (10 μM), LPS (10 ng/mL), or vehicle overnight. The release of type I IFN in the culture supernatants was measured by luciferase release in L929-ISRE reporter cells. Data shown are mean±SEM of triplicates. B) Compound 1a- or vehicle-treated wild type or Tlr4^−/−mBMDC were stained for CD11c and either CD40, CD80, or CD86. The expression levels of CD40, CD80, or CD86 were evaluated in the gated CD11c^+ population. DMSO 0.5% served as the vehicle control. C) Human PBMC were incubated with compound 1a (5 μM) overnight. CD80 and CD83 expression in gated CD11c^+ HLA-DR^+ population was analyzed by flow cytometer. Data are representative of two independent experiments showing similar results.
To evaluate whether treatment of DCs with this compound can induce maturation in these cells, mBMDC prepared from wild type or TLR4 deficient mice were exposed to compound 1a and then assayed for expression of co-stimulatory molecules CD40, CD80, and CD86 in the CD11c+ population (FIG. 2B). […] Induction of co-stimulatory molecules by compound 1a was also confirmed in human PBMC.

[5] = tested on: THP-1 cells; test: CellSensor NF-κB-bla THP-1 FRET β-lactamase reporter assay; format: cell-based, human; conditions: graded concentrations, normalized to LPS
Experimental: The assay with CellSensor® NF-κB-bla THP-1 cells was performed almost identically to that with CellSensor® NF-κB-bla RAW 264.7 cells, except that cells were harvested, resuspended, and plated in RPMI (plus 10% dialyzed FBS, 0.1 mM non-essential amino acids, 1 mM sodium pyruvate, 100 U/ml penicillin and 100 μg/ml streptomycin) and incubated with drugs for only 5 h prior to addition of the 6× substrate mixture. Plates were then incubated for 2 h prior to measurement of fluorescence.

[6] = tested on: human PBMC; test: MTT viability of human PBMC; format: cell-based; conditions: 10 μM, 18 h incubation

With `CCOC(=O)c1nc(Nc2cc(Oc3ccccc3)cc([N+](=O)[O-])c2)c2ccccc2n1` [Compound 1a, Ethyl 4-((3-nitro-5-phenoxyphenyl)amino)quinazoline-2-carboxylate] the “HepG2 MT” value [1] was 93.5, the “NF-κB activation (SEAP) across TLR transfected cells” value [2] was “only those expressing TLR4/MD-2/CD14 responded” and the “Dependence of IL-6 production on CD14 and MD-2” value ([3]; 10 μM, mBMDC genetically deficient for CD14 or MD-2) was “not to be dependent on CD14, but dependent on MD-2”. The “IL-6 secretion induced in mBMDC on genetic disruption of TLR4” value ([3]; 10 μM, wild type vs TLR4 deficient mice) was “completely abrogated”, the “Concentration inducing detectable levels of IL-6” value ([3]; mBMDC, graded concentrations, compared with IL-8 in hPBMC) was “higher concentrations were required” and the “Expression of co-stimulatory molecules CD40, CD80, CD86” value ([4]; TLR4 deficient mBMDC) was “not in the TLR4 deficient cells”. For the same compound, the “Expression of co-stimulatory molecules CD40, CD80, CD86” value ([4]; wild type mBMDC) was “increased”, the “NF-κB activation potency, human THP-1 versus mouse RAW264.7” value [5] was “significantly more potent” and the “Viability by MTT assay” value [6] was 112±2.1%.
